Reference: ChEMBL document CHEMBL1201861, “Genomics of Drug Sensitity in Cancer screening data, Wellcome Trust Sanger Institute”
Where a name gives a salt, the structure may show the parent alone.

Tests used:
KU-19-19 = assay: cells; assay type: functional, cell-based, Homo sapiens; conditions: Homo sapiens, KU-19-19
Description: SANGER: Inhibition of human KU-19-19 cell growth in a cell viability assay.

DMS-53 = assay: cells; assay type: functional, cell-based, Homo sapiens; conditions: Homo sapiens, DMS-53;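 further: cell viability assay measuring growth inhibition of human DMS-53 cells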
Description: SANGER: Inhibition of human DMS-53 cell growth in a cell viability assay.

Detroit 562 = assay: cells; assay type: functional, cell-based, Homo sapiens; conditions: Homo sapiens, Detroit 562;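 further: growth inhibition of human Detroit 562 cells, read out by a cell viability assay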
Description: SANGER: Inhibition of human Detroit562 cell growth in a cell viability assay.

Huh-7 = assay: cells; assay type: functional, cell-based, Homo sapiens; conditions: Homo sapiens, Huh-7;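 further: HuH-7 cell growth inhibition, read out with a cell viability assay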
Description: SANGER: Inhibition of human HuH-7 cell growth in a cell viability assay.

COLO-678 = assay: cells; assay type: functional, cell-based, Homo sapiens; conditions: Homo sapiens, COLO-678
Description: SANGER: Inhibition of human COLO-678 cell growth in a cell viability assay.

MEL-JUSO = assay: cells; assay type: functional, cell-based, Homo sapiens; conditions: Homo sapiens, MEL-JUSO;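 further: growth inhibition of human MEL-JUSO cells, read out with a cell viability assay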
Description: SANGER: Inhibition of human MEL-JUSO cell growth in a cell viability assay.

SCC-9 = assay: cells; assay type: functional, cell-based, Homo sapiens; conditions: Homo sapiens, SCC-9;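 further: Read-out is a cell viability assay, with values giving inhibition of cell growth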
Description: SANGER: Inhibition of human SCC-9 cell growth in a cell viability assay.

SNU-423 = assay: cells; assay type: functional, cell-based, Homo sapiens; conditions: Homo sapiens, SNU-423
Description: SANGER: Inhibition of human SNU-423 cell growth in a cell viability assay.

NCI-H1975 = assay: cells; assay type: functional, cell-based, Homo sapiens; conditions: Homo sapiens, NCI-H1975
Description: SANGER: Inhibition of human NCI-H1975 cell growth in a cell viability assay.

NCI-H2347 = assay: cells; assay type: functional, cell-based, Homo sapiens; conditions: Homo sapiens, NCI-H2347;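 further: growth inhibition of the cell line, read out with a cell viability assay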
Description: SANGER: Inhibition of human NCI-H2347 cell growth in a cell viability assay.

8305C = assay: cells; assay type: functional, cell-based, Homo sapiens; conditions: Homo sapiens, 8305C
Description: SANGER: Inhibition of human 8305C cell growth in a cell viability assay.

HCC1395 = assay: cells; assay type: functional, cell-based, Homo sapiens; conditions: Homo sapiens, HCC1395;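 further: growth inhibition of HCC1395 cells, read out by a cell viability assay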
Description: SANGER: Inhibition of human HCC1395 cell growth in a cell viability assay.

U-251 = assay: cells; assay type: functional, cell-based, Homo sapiens; conditions: Homo sapiens, U-251;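 further: growth inhibition of human U-251 cells, read out through a cell viability assay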
Description: SANGER: Inhibition of human U251 cell growth in a cell viability assay.

SW948 = assay: cells; assay type: functional, cell-based, Homo sapiens; conditions: Homo sapiens, SW948;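 further: growth inhibition of SW948 cells, read out with a cell viability assay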
Description: SANGER: Inhibition of human SW948 cell growth in a cell viability assay.

OVCAR-5 = assay: cells; assay type: functional, cell-based, Homo sapiens; conditions: Homo sapiens, OVCAR-5;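 further: growth inhibition of human OVCAR-5 cells, read out with a cell viability assay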
Description: SANGER: Inhibition of human OVCAR-5 cell growth in a cell viability assay.

GCT = assay: cells; assay type: functional, cell-based, Homo sapiens; conditions: Homo sapiens, GCT;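 further: GCT cell line proliferation inhibition, read out with a cell viability assay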
Description: SANGER: Inhibition of human GCT cell growth in a cell viability assay.

EFO-27 = assay: cells; assay type: functional, cell-based, Homo sapiens; conditions: Homo sapiens, EFO-27;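 further: growth inhibition of EFO-27 cells, read out with a cell viability assay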
Description: SANGER: Inhibition of human EFO-27 cell growth in a cell viability assay.

FTC-133 = assay: cells; assay type: functional, cell-based, Homo sapiens; conditions: Homo sapiens, FTC-133
KP-4 = assay: cells; assay type: functional, cell-based, Homo sapiens; conditions: Homo sapiens, KP-4;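 further: human KP-4 cells, with growth inhibition read out through a cell viability assay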
Description: SANGER: Inhibition of human KP-4 cell growth in a cell viability assay.

BFTC-909 = assay: cells; assay type: functional, cell-based, Homo sapiens; conditions: Homo sapiens, BFTC-909
Description: SANGER: Inhibition of human BFTC-909 cell growth in a cell viability assay.

TCC-SUP = assay: cells; assay type: functional, cell-based, Homo sapiens; conditions: Homo sapiens, TCC-SUP;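 further: growth inhibition of TCC-SUP cells, read out with a cell viability assay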
Description: SANGER: Inhibition of human TCCSUP cell growth in a cell viability assay.

ACHN = assay: cells; assay type: functional, cell-based, Homo sapiens; conditions: Homo sapiens, ACHN;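 further: cell viability read-out used to gauge how strongly growth of human ACHN cells is suppressed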
Description: SANGER: Inhibition of human ACHN cell growth in a cell viability assay.

IGROV-1 = assay: cells; assay type: functional, cell-based, Homo sapiens; conditions: Homo sapiens, IGROV-1;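 further: reduction of IGROV-1 cell growth, read out with a viability assay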
Description: SANGER: Inhibition of human IGROV-1 cell growth in a cell viability assay.

UACC-62 = assay: cells; assay type: functional, cell-based, Homo sapiens; conditions: Homo sapiens, UACC-62;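 further: growth inhibition of human UACC-62 cells, read out by a cell viability assay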
Description: SANGER: Inhibition of human UACC-62 cell growth in a cell viability assay.

HSC-4 = assay: cells; assay type: functional, cell-based, Homo sapiens; conditions: Homo sapiens, HSC-4;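 further: growth inhibition of human HSC-4 cells, read out with a cell viability assay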
Description: SANGER: Inhibition of human HSC-4 cell growth in a cell viability assay.

CAPAN-1 = assay: cells; assay type: functional, cell-based, Homo sapiens; conditions: Homo sapiens, CAPAN-1;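 further: growth suppression of CAPAN-1 cells, read out by a cell viability assay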
Description: SANGER: Inhibition of human CAPAN-1 cell growth in a cell viability assay.

BOKU = assay: cells; assay type: functional, cell-based, Homo sapiens; conditions: Homo sapiens, BOKU;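 further: growth inhibition of the human BOKU cell line, read out by a cell viability assay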
Description: SANGER: Inhibition of human BOKU cell growth in a cell viability assay.

PLC-PRF-5 = assay: cells; assay type: functional, cell-based, Homo sapiens; conditions: Homo sapiens, PLC-PRF-5;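 further: growth inhibition of human PLC-PRF-5 cells, read out with a viability assay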
Description: SANGER: Inhibition of human PLC-PRF-5 cell growth in a cell viability assay.

MFE-296 = assay: SANGER: Inhibition of human MFE-296 cell growth in a cell viability assay.; assay type: functional, cell-based; conditions: Homo sapiens, MFE-296
Caov-3 cell line = assay: cells; assay type: functional, cell-based, Homo sapiens; conditions: Homo sapiens, Caov-3;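 further: cell growth inhibition read out by a viability assay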
Description: SANGER: Inhibition of human Caov-3 cell growth in a cell viability assay.

CCF-STTG1 = assay: cells; assay type: functional, cell-based, Homo sapiens; conditions: Homo sapiens, CCF-STTG1;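 further: growth inhibition of human CCF-STTG1 cells, determined with a cell viability read-out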
Description: SANGER: Inhibition of human CCF-STTG1 cell growth in a cell viability assay.

LC-1F = assay: cells; assay type: functional, cell-based, Homo sapiens; conditions: Homo sapiens, LC-1F;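 further: growth inhibition of human LC-1F cells, read out with a cell viability assay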
Description: SANGER: Inhibition of human LC-1F cell growth in a cell viability assay.

RPMI-6666 = assay: cells; assay type: functional, cell-based, Homo sapiens; conditions: Homo sapiens, RPMI-6666
Description: SANGER: Inhibition of human RPMI-6666 cell growth in a cell viability assay.

Calu-1 = assay: SANGER: Inhibition of human Calu-1 cell growth in a cell viability assay.; assay type: functional, cell-based; conditions: Homo sapiens, Calu-1
Kasumi 1 = assay: cells; assay type: functional, cell-based, Homo sapiens; conditions: Homo sapiens, Kasumi 1;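 further: growth inhibition of human Kasumi-1 cells, read out by a cell viability assay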
Description: SANGER: Inhibition of human KASUMI-1 cell growth in a cell viability assay.

NCI-H838 = assay: cells; assay type: functional, cell-based, Homo sapiens; conditions: Homo sapiens, NCI-H838;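 further: growth inhibition of human NCI-H838 cells, read out by a cell viability assay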
Description: SANGER: Inhibition of human NCI-H838 cell growth in a cell viability assay.

MDA-MB-468 = assay: cells; assay type: functional, cell-based, Homo sapiens; conditions: Homo sapiens, MDA-MB-468
Description: SANGER: Inhibition of human MDA-MB-468 cell growth in a cell viability assay.

IPC-298 = assay: SANGER: Inhibition of human IPC-298 cell growth in a cell viability assay.; assay type: functional, cell-based; conditions: Homo sapiens, IPC-298
EFE-184 = assay: cells; assay type: functional, cell-based, Homo sapiens; conditions: Homo sapiens, EFE-184
Description: SANGER: Inhibition of human EFE-184 cell growth in a cell viability assay.

ECC4 = assay: cells; assay type: functional, cell-based, Homo sapiens; conditions: Homo sapiens, ECC4;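 further: growth inhibition of ECC4 cells, read out with a cell viability assay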
Description: SANGER: Inhibition of human ECC4 cell growth in a cell viability assay.

COLO 205 = assay: cells; assay type: functional, cell-based, Homo sapiens; conditions: Homo sapiens, COLO 205
Description: SANGER: Inhibition of human COLO-205 cell growth in a cell viability assay.

ST486 = assay: SANGER: Inhibition of human ST486 cell growth in a cell viability assay.; assay type: functional, cell-based; conditions: Homo sapiens, ST486
L-540 = assay: cells; assay type: functional, cell-based, Homo sapiens; conditions: Homo sapiens, L-540;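 further: growth inhibition of the human L-540 cell line, read out with a viability assay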
Description: SANGER: Inhibition of human L-540 cell growth in a cell viability assay.

NCI-H345 = assay: cells; assay type: functional, cell-based, Homo sapiens; conditions: Homo sapiens, NCI-H345;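 further: growth inhibition of NCI-H345 cells measured with a cell viability assay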
Description: SANGER: Inhibition of human NCI-H345 cell growth in a cell viability assay.

HCC1143 = assay: cells; assay type: functional, cell-based, Homo sapiens; conditions: Homo sapiens, HCC1143;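 further: growth inhibition of human HCC1143 cells, read out with a cell viability assay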
Description: SANGER: Inhibition of human HCC1143 cell growth in a cell viability assay.

Q: What does the source list for `CC(C)c1ccccc1Cc1cc(C(=O)Nc2ccc(S(=O)(=O)c3ccccc3C(C)(C)C)cc2)c(O)c(O)c1O`?
A: IC50 (KU-19-19): 0.44 µM; IC50 (DMS-53): 1.32 µM; IC50 (Detroit 562): 1.27 µM; IC50 (Huh-7): 0.0328 µM; IC50 (COLO-678): 3.31 µM; IC50 (MEL-JUSO): 0.439 µM; IC50 (SCC-9): 0.957 µM; IC50 (SNU-423): 0.325 µM; IC50 (NCI-H1975): 1.38 µM; IC50 (NCI-H2347): 1.22 µM; IC50 (8305C): 3.91 µM; IC50 (HCC1395): 7.11 µM; IC50 (U-251): 0.388 µM; IC50 (SW948): 32.7 µM; IC50 (OVCAR-5): 0.576 µM; IC50 (GCT): 0.191 µM; IC50 (EFO-27): 0.117 µM; IC50 (FTC-133): 0.607 µM; IC50 (KP-4): 0.455 µM; IC50 (BFTC-909): 0.258 µM; IC50 (TCC-SUP): 0.361 µM; IC50 (ACHN): 0.149 µM; IC50 (IGROV-1): 0.454 µM; IC50 (UACC-62): 0.0344 µM; IC50 (HSC-4): 0.213 µM; IC50 (CAPAN-1): 10.8 µM

Q: For `N#Cc1c(O)c2c(-c3ccc(-c4ccccc4O)cc3)csc2[nH]c1=O`, which IC50 (KU-19-19) is on record?
A: > 1.02 µM

Q: What about the IC50 (DMS-53) of the same molecule?
A: > 1.02 µM

Q: What about the IC50 (Detroit 562) of the same molecule?
A: > 1.02 µM

Q: What about the IC50 (BOKU) of the same molecule?
A: > 1.02 µM

Q: And the IC50 (Huh-7)?
A: > 1.02 µM

Q: And the IC50 (PLC-PRF-5)?
A: > 1.02 µM

Q: And the IC50 (COLO-678)?
A: > 1.02 µM

Q: And the IC50 (MEL-JUSO)?
A: > 1.02 µM

Q: What about the IC50 (SCC-9) of the same molecule?
A: > 1.02 µM

Q: What about the IC50 (MFE-296) of the same molecule?
A: > 1.02 µM

Q: What about the IC50 (SNU-423) of the same molecule?
A: > 1.02 µM

Q: What about the IC50 (Caov-3 cell line) of the same molecule?
A: > 1.02 µM

Q: And the IC50 (NCI-H2347)?
A: > 1.02 µM

Q: What about the IC50 (CCF-STTG1) of the same molecule?
A: > 1.02 µM

Q: And the IC50 (LC-1F)?
A: > 1.02 µM

Q: And the IC50 (RPMI-6666)?
A: 0.068 µM

Q: And the IC50 (Calu-1)?
A: > 1.02 µM

Q: What about the IC50 (Kasumi 1) of the same molecule?
A: 0.0418 µM

Q: What about the IC50 (8305C) of the same molecule?
A: > 1.02 µM

Q: What about the IC50 (NCI-H838) of the same molecule?
A: > 1.02 µM

Q: What about the IC50 (HCC1395) of the same molecule?
A: > 1.02 µM

Q: And the IC50 (U-251)?
A: > 1.02 µM

Q: What about the IC50 (SW948) of the same molecule?
A: > 1.02 µM

Q: And the IC50 (OVCAR-5)?
A: > 1.02 µM

Q: What about the IC50 (GCT) of the same molecule?
A: > 1.02 µM

Q: And the IC50 (EFO-27)?
A: > 1.02 µM

Q: What about the IC50 (MDA-MB-468) of the same molecule?
A: > 1.02 µM

Q: And the IC50 (IPC-298)?
A: > 1.02 µM

Q: What about the IC50 (FTC-133) of the same molecule?
A: > 1.02 µM

Q: What about the IC50 (EFE-184) of the same molecule?
A: > 1.02 µM

Q: What about the IC50 (KP-4) of the same molecule?
A: > 1.02 µM

Q: What about the IC50 (BFTC-909) of the same molecule?
A: > 1.02 µM

Q: What about the IC50 (TCC-SUP) of the same molecule?
A: > 1.02 µM

Q: And the IC50 (ACHN)?
A: > 1.02 µM

Q: And the IC50 (IGROV-1)?
A: > 1.02 µM

Q: What about the IC50 (ECC4) of the same molecule?
A: 0.509 µM

Q: And the IC50 (COLO 205)?
A: > 1.02 µM

Q: What about the IC50 (UACC-62) of the same molecule?
A: > 1.02 µM

Q: What about the IC50 (HSC-4) of the same molecule?
A: > 1.02 µM

Q: And the IC50 (ST486)?
A: 0.135 µM

Q: What about the IC50 (L-540) of the same molecule?
A: 0.848 µM

Q: And the IC50 (CAPAN-1)?
A: 0.256 µM

Q: What about the IC50 (NCI-H345) of the same molecule?
A: > 1.02 µM

Q: What about the IC50 (HCC1143) of the same molecule?
A: > 1.02 µM

Q: For `COC1=CC(c2cc3ccccc3[nH]2)=N/C1=C\c1[nH]c(C)cc1C` [OBATOCLAX MESYLATE], which IC50 (KU-19-19) is on record?
A: 0.646 µM

Q: What about the IC50 (DMS-53) of the same molecule?
A: 0.478 µM

Q: And the IC50 (Detroit 562)?
A: 0.489 µM

Q: And the IC50 (BOKU)?
A: 1.28 µM

Q: And the IC50 (Huh-7)?
A: 0.379 µM

Q: What about the IC50 (PLC-PRF-5) of the same molecule?
A: 1.15 µM

Q: And the IC50 (COLO-678)?
A: 3.38 µM

Q: And the IC50 (MEL-JUSO)?
A: 0.0247 µM

Q: What about the IC50 (SCC-9) of the same molecule?
A: 1.24 µM

Q: And the IC50 (MFE-296)?
A: 0.139 µM

Q: What about the IC50 (SNU-423) of the same molecule?
A: 0.129 µM

Q: What about the IC50 (Caov-3 cell line) of the same molecule?
A: 1.69 µM

Q: And the IC50 (NCI-H2347)?
A: 0.888 µM

Q: And the IC50 (CCF-STTG1)?
A: 0.926 µM

Q: And the IC50 (LC-1F)?
A: 3.72 µM

Q: And the IC50 (RPMI-6666)?
A: 0.0897 µM

Q: And the IC50 (Calu-1)?
A: 0.313 µM

Q: And the IC50 (8305C)?
A: 0.18 µM

Q: And the IC50 (NCI-H838)?
A: 0.528 µM

Q: What about the IC50 (HCC1395) of the same molecule?
A: 1.93 µM

Q: And the IC50 (U-251)?
A: 0.335 µM

Q: What about the IC50 (SW948) of the same molecule?
A: 7.58 µM

Q: What about the IC50 (OVCAR-5) of the same molecule?
A: 0.311 µM

Q: What about the IC50 (GCT) of the same molecule?
A: 2.59 µM

Q: What about the IC50 (EFO-27) of the same molecule?
A: 0.34 µM

Q: What about the IC50 (MDA-MB-468) of the same molecule?
A: 0.917 µM

Q: And the IC50 (IPC-298)?
A: < 0.0625 µM

Q: And the IC50 (FTC-133)?
A: 3.65 µM

Q: What about the IC50 (EFE-184) of the same molecule?
A: 7.32 µM

Q: What about the IC50 (KP-4) of the same molecule?
A: 0.696 µM

Q: And the IC50 (BFTC-909)?
A: 0.453 µM

Q: What about the IC50 (TCC-SUP) of the same molecule?
A: 1.25 µM

Q: And the IC50 (ACHN)?
A: 0.132 µM

Q: And the IC50 (IGROV-1)?
A: < 0.0625 µM

Q: And the IC50 (ECC4)?
A: 5.09 µM

Q: And the IC50 (COLO 205)?
A: 0.0572 µM

Q: And the IC50 (UACC-62)?
A: 0.302 µM

Q: What about the IC50 (HSC-4) of the same molecule?
A: 0.667 µM

Q: What about the IC50 (ST486) of the same molecule?
A: < 0.0625 µM

Q: And the IC50 (L-540)?
A: 0.216 µM

Q: What about the IC50 (CAPAN-1) of the same molecule?
A: 0.523 µM

Q: And the IC50 (NCI-H345)?
A: > 16 µM

Q: And the IC50 (HCC1143)?
A: 0.174 µM
